Where two headings read alike, the source gives them in different places.
What was measured:
Assay type in all cases: cell-based, human
SMN2 mRNA = test: RT-qPCR splicing assay panel, SMN2 canonical junction (CJ) mRNA; conditions: canonical junction (CJ) mRNA, RT-qPCR panel, Table 4A, read-out: SMN2, decrease in CJ mRNA levels, IC50
Procedure: (§1) Compounds described herein were used to modulate RNA transcript abundance in cells. The expression of a target mRNA was measured by detecting the formation of an exon-exon junction in the canonical transcript (CJ). A compound mediated exon-inclusion event was detected by observing an increase in formation of a new junction with an alternative exon (AJ). Real-time qPCR assays were used to detect these splicing switches and interrogate the potency of various compounds towards different target genes. A high-throughput real time quantitative PCR (RT-qPCR) assay was developed to measure these two isoforms of the mRNA (CJ and AJ) for exemplary genes, such as HTT, SMN2, and MYB, together with a control housekeeping gene, GAPDH or GUSB or PPIA, used for normalization. Briefly, the A673 or K562 cell line was treated with various compounds described herein (e.g., compounds of Formula (I), (II), (III), (IV)). After treatment, the levels of the HTT, MYB, or SMN2 mRNA targets were determined from each sample of cell lysate by cDNA synthesis followed by qPCR.
(§2) The A673 cell line was cultured in DMEM with 10% FBS. Cells were diluted with full growth media and plated in a 96-well plate (15,000 cells in 100ul media per well). The plate was incubated at 37° C. with 5% CO2 for 24 hours to allow cells to adhere. An 11-point 3-fold serial dilution of the compounds was made in DMSO then diluted in media in an intermediate plate. Compounds were transferred from the intermediate plate to the cell plate with the top dose at a final concentration of 10 uM in the well. Final DMSO concentration was kept at or below 0.25%. The cell plate was returned to the incubator at 37° C. with 5% CO2 for an additional 24 hours.
(§3) The K562 cell line was cultured in IMDM with 10% FBS. For K562, cells were diluted with full growth media and plated in either a 96-well plate (50,000 cells in 50 uL media per well) or a 384-well plate (8,000-40,000 cells in 45 uL media per well). An 11-point 3-fold serial dilution of the compounds were made in DMSO then diluted in media in an intermediate plate.
(§4) Compound was transferred from the intermediate plate to the cell plate with the top dose at a final concentration of 10 uM in the well. Final DMSO concentration was kept at or below 0.25%.
(§5) Final volume was 100 uL for 96-well plate and 50 uL for 384-well plate. The cell plate was then placed in an incubator at 37° C. with 5% CO2 for 24 hours.
(§6) The cells were then gently washed with 50 uL-100 uL cold PBS before proceeding to addition of lysis buffer. 30 uL-50 μL of room temperature lysis buffer with DNAse I (and optionally RNAsin) was added to each well. Cells were shaken/mixed thoroughly at room temperature for 5-10 minutes for lysis to take place and then 3 uL-5 μL of room temperature stop solution was added and wells were shaken/mixed again. After 2-5 minutes, the cell lysate plate was transferred to ice for RT-qPCR reaction setup. The lysates could also be frozen at −80° C. for later use.
(§7) In some cases, a direct lysis buffer was used. An appropriate volume of 3× lysis buffer (10 mM Tris, 150 mM NaCl, 1.5%-2.5% Igepal and 0.1-1 U/uL RNAsin, pH 7.4) was directly added to either K562 or A673 cells in media and mixed by pipetting 3 times. The plates were then incubated at room temperature with shaking/rocking for 20-50 minutes to allow for lysis to take place. After this time, the cell lysate plate was transferred to ice to set up for the RT-qPCR reactions. The lysates could also be frozen at −80° C. for later use.
(§8) To set up 10 uL RT-qPCR reactions, cell lysates were transferred to 384-well qPCR plates containing the master mix according to the table below. The plates were sealed, gently vortexed, and spun down before the run. The volumes were adjusted accordingly in some instances where the reaction was carried in 20 μL. The table below summarizes the components of the RT-qPCR reactions: […]

Target C mRNA = test: RT-qPCR splicing assay panel, Target C canonical junction (CJ) mRNA; conditions: canonical junction (CJ) mRNA, RT-qPCR panel, Table 4A, read-out: Target C, decrease in CJ mRNA levels, IC50
Procedure: as §1, §2, §3, §4, §5, §6, §7, §8

MYB mRNA = test: RT-qPCR splicing assay, MYB canonical (CJ) and alternative (AJ) junction mRNA; conditions: for AC50: read-out: MYB AJ (AC50, increase in AJ mRNA)
Procedure: as §1, §2, §3, §4, §5, §6, §7, §8

HTT mRNA = test: RT-qPCR splicing assay, HTT canonical (CJ) and alternative (AJ) junction mRNA; conditions: for AC50: read-out: HTT AJ (AC50, increase in AJ mRNA)
Procedure: as §1, §2, §3, §4, §5, §6, §7, §8

[1] = Homo sapiens, 24 h, Table 3A, A673 or K562 cells, 24 h treatment
[2] = Homo sapiens, 24 h, Table 3A, A673 or K562 cells, 24 h treatment, read-out: MYB CJ (IC50, decrease in CJ mRNA)
[3] = Homo sapiens, canonical junction (CJ) mRNA, RT-qPCR panel, Table 4A, read-out: MYB, decrease in CJ mRNA levels, IC50
[4] = Homo sapiens, 24 h, Table 3A, A673 or K562 cells, 24 h treatment, read-out: HTT CJ (IC50, decrease in CJ mRNA)
[5] = Homo sapiens, canonical junction (CJ) mRNA, RT-qPCR panel, Table 4A, read-out: HTT, decrease in CJ mRNA levels, IC50
[6] = Table 3A, A673 or K562 cells, 24 h treatment
[7] = Table 3A, A673 or K562 cells, 24 h treatment, read-out: MYB CJ (IC50, decrease in CJ mRNA)
[8] = canonical junction (CJ) mRNA, RT-qPCR panel, Table 4A, read-out: MYB, decrease in CJ mRNA levels, IC50
[9] = Table 3A, A673 or K562 cells, 24 h treatment, read-out: HTT CJ (IC50, decrease in CJ mRNA)
[10] = canonical junction (CJ) mRNA, RT-qPCR panel, Table 4A, read-out: HTT, decrease in CJ mRNA levels, IC50

Compound | IC50 (SMN2 mRNA; Homo sapiens) | IC50 (Target C mRNA; Homo sapiens) | AC50 (MYB mRNA; [1]) | IC50 (MYB mRNA; [2]) | IC50 (MYB mRNA; [3]) | AC50 (HTT mRNA; [1]) | IC50 (HTT mRNA; [4]) | IC50 (HTT mRNA; [5]) | IC50 (SMN2 mRNA) | IC50 (Target C mRNA) | AC50 (MYB mRNA; [6]) | IC50 (MYB mRNA; [7]) | IC50 (MYB mRNA; [8]) | AC50 (HTT mRNA; [6]) | IC50 (HTT mRNA; [9]) | IC50 (HTT mRNA; [10])
CN(C1CCC1)[C@H]1CCN(c2ccc(-c3cc(F)c(-c4cn[nH]c4)cc3O)nn2)C1 [Compound 295] | < 100 nM | < 100 nM | 100 to 1000 nM | 100 to 1000 nM | 100 to 1000 nM | < 100 nM | < 100 nM | < 100 nM |  |  |  |  |  |  |  | 
COc1cc(-c2cc(O)c(-c3ccc(N4CCC(C)(NC(C)C)C4)nn3)cc2F)cnn1 (centres unmarked) [Compound 284] | < 100 nM | 100 to 1000 nM | 100 to 1000 nM | 100 to 1000 nM | 100 to 1000 nM | < 100 nM | < 100 nM | < 100 nM |  |  |  |  |  |  |  | 
COc1cc(-c2ccc(-c3ccc(N4CCC(C)(NC(C)C)C4)nn3)c(O)c2)cnn1 (centres unmarked) [Compound 285, 2-{6-[3-(isopropylamino)-3-methylpyrrolidin-1-yl]pyridazin-3-yl}-5-(6-methoxypyridazin-4-yl)phenol] | < 100 nM | < 100 nM | 100 to 1000 nM | 100 to 1000 nM | 100 to 1000 nM | < 100 nM | < 100 nM | < 100 nM |  |  |  |  |  |  |  | 
COc1cc(-c2ccc(-c3ccc(N4CCC(N[C@H]5C[C@@H](O)C5)C4)nn3)c(O)c2)cnn1 (some centres unmarked) [Compound 403, 5-(6-methoxypyridazin-4-yl)-2-[6-(3-{[(1s,3s)-3-hydroxycyclobutyl]amino}pyrrolidin-1-yl)pyridazin-3-yl]phenol] | < 100 nM | 100 to 1000 nM | 1000 to 10000 nM | 100 to 1000 nM | 100 to 1000 nM | 100 to 1000 nM | < 100 nM | < 100 nM |  |  |  |  |  |  |  | 
CN([C@@H]1CCN(c2ccc(-c3ccc(-c4cn[nH]c4)cc3O)nn2)C1)C(C)(C)C [Compound 446] |  |  |  |  |  |  |  |  | < 100 nM | < 100 nM | < 100 nM | < 100 nM | < 100 nM | < 100 nM | < 100 nM | < 100 nM
Cc1nc2ccc(-c3ccc(-c4ccc(N5CCC(NC6CCC6)C5)nn4)c(O)c3)cc2o1 (centres unmarked) [Compound 316] | 100 to 1000 nM | 100 to 1000 nM | 100 to 1000 nM | 1000 to 10000 nM | 1000 to 10000 nM | 100 to 1000 nM | 100 to 1000 nM | 100 to 1000 nM |  |  |  |  |  |  |  | 
Oc1cc(-c2cn[nH]c2)ccc1-c1ccc(N2CCN[C@@H](C3CC3)C2)nn1 [Compound 263] | < 100 nM | 100 to 1000 nM | 100 to 1000 nM | 100 to 1000 nM | 100 to 1000 nM | < 100 nM | < 100 nM | < 100 nM |  |  |  |  |  |  |  | 
COc1cc(-c2cc(O)c(-c3ccc(N4CCC(N[C@H]5C[C@H](F)C5)C4)nn3)cc2F)cnn1 (some centres unmarked) [Compound 274] | < 100 nM | 100 to 1000 nM | 100 to 1000 nM | 100 to 1000 nM | 100 to 1000 nM | 100 to 1000 nM | < 100 nM | < 100 nM |  |  |  |  |  |  |  | 
Cc1ncc(-c2ccc(-c3ccc(N4CC[C@](C)(NC5CCC5)C4)nn3)c(O)c2)s1 [Compound 357] | < 100 nM | < 100 nM | 100 to 1000 nM | 100 to 1000 nM | 100 to 1000 nM | < 100 nM | < 100 nM | < 100 nM |  |  |  |  |  |  |  | 
Cc1nsc(-c2cc(O)c(-c3ccc(N4CC[C@@H](NCC5CC5)C4)nn3)cc2F)n1 [Compound 431] | < 100 nM | 100 to 1000 nM | 100 to 1000 nM | 100 to 1000 nM | 100 to 1000 nM | 100 to 1000 nM | 100 to 1000 nM | 100 to 1000 nM |  |  |  |  |  |  |  | 
Cc1ncc(-c2cc(O)c(-c3ccc(N4CCC(NC5CCCC5)C4)nn3)cc2F)s1 (centres unmarked) [Compound 391] | < 100 nM | < 100 nM | 100 to 1000 nM | < 100 nM | < 100 nM | < 100 nM | < 100 nM | < 100 nM |  |  |  |  |  |  |  | 
COc1cc(-c2cc(O)c(-c3ccc(OC4CC(C)(C)NC(C)(C)C4)nn3)cc2F)cnn1 [Compound 272] | < 100 nM | 100 to 1000 nM | 100 to 1000 nM | 100 to 1000 nM | 100 to 1000 nM | < 100 nM | < 100 nM | < 100 nM |  |  |  |  |  |  |  | 
COc1cc(-c2ccc(-c3ccc(N4CCC(CNC5CCC5)C4)nn3)c(O)c2)cnn1 (stereo in doubt) [Compound 441, 2-{6-[(3S)-3-[(cyclobutylamino)methyl]pyrrolidin-1-yl]pyridazin-3-yl}-5-(6-methoxypyridazin-4-yl)phenol] | < 100 nM | 100 to 1000 nM | 100 to 1000 nM | 100 to 1000 nM | 100 to 1000 nM | 100 to 1000 nM | 100 to 1000 nM | 100 to 1000 nM |  |  |  |  |  |  |  | 
COc1cc(-c2ccc(-c3ccc(N4CCC(NC5CCC5)C4)nn3)c(O)c2)ccn1 (centres unmarked) [Compound 305] | 100 to 1000 nM | 1000 to 10000 nM | 1000 to 10000 nM | 1000 to 10000 nM | 1000 to 10000 nM | 100 to 1000 nM | 100 to 1000 nM | 100 to 1000 nM |  |  |  |  |  |  |  | 
COc1cc(-c2ccc(-c3ccc(N4CC[C@H](NC5(C)CC5)C4)nn3)c(O)c2)cnn1 [Compound 265, 5-(6-methoxypyridazin-4-yl)-2-{6-[(3S)-3-[(1-methylcyclopropyl)amino]pyrrolidin-1-yl]pyridazin-3-yl}phenol] |  |  |  |  |  |  |  |  | < 100 nM | < 100 nM | < 100 nM | < 100 nM | < 100 nM | < 100 nM | < 100 nM | < 100 nM
COc1cc(-c2cc(O)c(-c3ccc(N4CC[C@@](C)(NC5CCC5)C4)nn3)cc2F)cnn1 (single isomer, unassigned) [Compound 308, 2-{6-[3-(cyclobutylamino)-3-methylpyrrolidin-1-yl]pyridazin-3-yl}-4-fluoro-5-(6-methoxypyridazin-4-yl)phenol] | < 100 nM | 100 to 1000 nM | 100 to 1000 nM | 1000 to 10000 nM | 1000 to 10000 nM | 100 to 1000 nM | < 100 nM | < 100 nM |  |  |  |  |  |  |  | 
